From US9518018B2, “3-alkoxy, thioalkyl and amino-4-amino-6-(substituted)picolinates and their use as herbicides” (Dow AgroSciences LLC, priority 2011, dated 2016)

Tests used:
Test in all cases: In-water applied herbicidal activity in transplanted paddy rice
Assay type in all cases: in vivo
[1] = system: CYPDI = Cyperus difformis L. (small-flower flatsedge)
Experimental: (§1) Weed seeds or nutlets of the desired test plant species were planted in puddled soil (mud) prepared by mixing a non-sterilized mineral soil (28 percent silt, 18 percent clay, and 54 percent sand, with a pH of about 7.3 to 7.8 and an organic matter content of about 1.0 percent) and water at a ratio of 100 kilograms (kg) of soil to 19 liters (L) of water. The prepared mud was dispensed in 250 mL aliquots into 480 mL non-perforated plastic pots with a surface area of 86.59 cm^2 leaving a headspace of 2.5 to 3 cm in each pot. Rice seeds were planted in Sun Gro MetroMix 306 planting mixture, which typically has a pH of 6.0 to 6.8 and an organic matter content of about 30 percent, in plastic plug trays. Seedlings at the second or third leaf stage of growth were transplanted into 650 mL of mud contained in 960 mL non-perforated plastic pots with a surface area of 86.59 cm^2 four days prior to herbicide application. The paddy was created by filling the 2.5 to 3 cm headspace of the pots with water. When required to ensure good germination and healthy plants, a fungicide treatment and/or other chemical or physical treatment was applied. The plants were grown for 4-14 d in a greenhouse with an approximate 14-h photoperiod which was maintained at about 29° C. during the day and 26° C. during the night. Nutrients were added as Osmocote (17:6:10, Nitrogen:Phosphorus:Potassium (N:P:K)+minor nutrients) at 2 grams (g) per cup. Water was added on a regular basis to maintain the paddy flood, and supplemental lighting was provided with overhead metal halide 1000-Watt lamps as necessary. The plants were employed for testing when they reached the second or third true leaf stage. Treatments consisted of compounds 45, 34, and 66. For technical grade compounds, a weighed amount, determined by the highest rate to be tested, was placed in an individual 120 mL glass vial and was dissolved in 20 mL of acetone to obtain concentrated stock solutions. […] The concentrated stock solutions obtained were diluted with 20 mL of an aqueous mixture containing 2.5% Agri-dex crop oil concentrate (v/v). Applications were made by injecting an appropriate amount of the stock solution into the aqueous layer of the paddy. Control plants were treated in the same manner with the solvent blank. All treated plant material received the same concentration of acetone and crop oil concentrate. The treated plants and control plants were placed in a greenhouse as described above and water was added as needed to maintain a paddy flood. After approximately 3 weeks, the condition of the test plants, compared with that of the untreated plants, was determined visually and scored on a scale of 0 to 100 percent where 0 corresponds to no injury and 100 corresponds to complete kill. By applying the well-accepted probit analysis as described by J. Berkson in Journal of the […], 48, 565 (1953) and by D. Finney in “Probit Analysis” Cambridge University Press (1952) or by plotting the mean data and fitting a logarithmic curve to the portion of the data where there was a dose response using Microsoft Excel®, the above data can be used to calculate GR50 and GR90 values, which are defined as growth reduction factors that correspond to the effective dose of herbicide required to kill or control 50 percent or 90 percent, respectively, of a target plant.

[2] = system: ORYSA = Oryza sativa ‘Wells’ (rice)
Experimental: as §1

[3] = system: SCPJU = Scirpus juncoides ROXB. (Japanese bulrush)
Experimental: as §1

[4] = system: ORYSA = Oryza sativa ‘M202’ (rice)
Experimental: as §1

[5] = system: MOOVA = Monochoria vaginalis (BURM.f.) C.PRESL ex KUNTH (monochoria)
Experimental: as §1

[6] = system: ECHCG = Echinochloa crus-galli (L.) P.BEAUV. (barnyardgrass)
Experimental: as §1

[7] = Table 7, dose to kill or control 50 percent, 21 days after application
[8] = Table 7, dose to kill or control 90 percent, 21 days after application

COC(=O)c1nc(-c2ccc(Cl)c(OC)c2F)c(F)c(N)c1OC [Compound 34]
7%: Mean Visual Injury (%)-21 Days After Application ORYSA ‘M202’ ([4]; Table 7, 70 g ae/ha) | Mean Visual Injury (%)-21 Days After Application ECHCG ([6]; Table 7, 17.5 g ae/ha)
90%: Mean Visual Injury (%)-21 Days After Application SCPJU ([3]; Table 7, 17.5 g ae/ha) | Mean Visual Injury (%)-21 Days After Application ECHCG ([6]; Table 7, 35 g ae/ha)
98%: Mean Visual Injury (%)-21 Days After Application ECHCG ([6]; Table 7, 70 g ae/ha)
25.4 g ae/ha: GR50 ECHCG [6, 7]
52.9 g ae/ha: GR90 ECHCG [6, 8]
>140 g ae/ha: GR50 ORYSA ‘Wells’ [2, 7] | GR90 ORYSA ‘Wells’ [2, 8] | GR50 ORYSA ‘M202’ [4, 7] | GR90 ORYSA ‘M202’ [4, 8]
8%: Mean Visual Injury (%)-21 Days After Application ORYSA ‘M202’ ([4]; Table 7, 140 g ae/ha)
<8.75 g ae/ha: GR50 CYPDI [1, 7] | GR90 CYPDI [1, 8] | GR50 SCPJU [3, 7] | GR50 MOOVA [5, 7] | GR90 MOOVA [5, 8]
67%: Mean Visual Injury (%)-21 Days After Application SCPJU ([3]; Table 7, 8.75 g ae/ha)
5%: Mean Visual Injury (%)-21 Days After Application ORYSA ‘Wells’ ([2]; Table 7, 140 g ae/ha)
21.1 g ae/ha: GR90 SCPJU [3, 8]
0%: Mean Visual Injury (%)-21 Days After Application ORYSA ‘Wells’ ([2]; Table 7, 8.75 g ae/ha) | Mean Visual Injury (%)-21 Days After Application ORYSA ‘Wells’ ([2]; Table 7, 17.5 g ae/ha) | Mean Visual Injury (%)-21 Days After Application ORYSA ‘Wells’ ([2]; Table 7, 35 g ae/ha) | Mean Visual Injury (%)-21 Days After Application ORYSA ‘Wells’ ([2]; Table 7, 70 g ae/ha) | Mean Visual Injury (%)-21 Days After Application ORYSA ‘M202’ ([4]; Table 7, 8.75 g ae/ha) | Mean Visual Injury (%)-21 Days After Application ORYSA ‘M202’ ([4]; Table 7, 17.5 g ae/ha) | Mean Visual Injury (%)-21 Days After Application ORYSA ‘M202’ ([4]; Table 7, 35 g ae/ha) | Mean Visual Injury (%)-21 Days After Application ECHCG ([6]; Table 7, 8.75 g ae/ha)
100%: Mean Visual Injury (%)-21 Days After Application CYPDI ([1]; Table 7, 8.75 g ae/ha) | Mean Visual Injury (%)-21 Days After Application CYPDI ([1]; Table 7, 17.5 g ae/ha) | Mean Visual Injury (%)-21 Days After Application CYPDI ([1]; Table 7, 35 g ae/ha) | Mean Visual Injury (%)-21 Days After Application CYPDI ([1]; Table 7, 70 g ae/ha) | Mean Visual Injury (%)-21 Days After Application CYPDI ([1]; Table 7, 140 g ae/ha) | Mean Visual Injury (%)-21 Days After Application SCPJU ([3]; Table 7, 35 g ae/ha) | Mean Visual Injury (%)-21 Days After Application SCPJU ([3]; Table 7, 70 g ae/ha) | Mean Visual Injury (%)-21 Days After Application SCPJU ([3]; Table 7, 140 g ae/ha) | Mean Visual Injury (%)-21 Days After Application MOOVA ([5]; Table 7, 8.75 g ae/ha) | Mean Visual Injury (%)-21 Days After Application MOOVA ([5]; Table 7, 17.5 g ae/ha) | Mean Visual Injury (%)-21 Days After Application MOOVA ([5]; Table 7, 35 g ae/ha) | Mean Visual Injury (%)-21 Days After Application MOOVA ([5]; Table 7, 70 g ae/ha) | Mean Visual Injury (%)-21 Days After Application MOOVA ([5]; Table 7, 140 g ae/ha) | Mean Visual Injury (%)-21 Days After Application ECHCG ([6]; Table 7, 140 g ae/ha)
